Results taken from patent publication US12043602B2, “Fendiline derivatives” (The Board of Regents of the University of Texas System, priority 2019, dated 2024).
Where “and” joins values, the source holds several entries; their conditions need not be identical. Identical values can stand only once. Like-named read-outs stand apart in the source and are kept apart here.

What was measured:
[1] = test system: MDCK cells co-expressing GFP-K-RASG12V and mCherry-CAAX; assay: Cytotoxicity in mislocalization screen (death of all cells in well); conditions: drug caused death of all cells in well at 30 μM
[2] = molecular target: mGFP-K-RASG12V (Homo sapiens (Human), UniProt P01116, G12V); assay: K-Ras mislocalization assay (confocal microscopy, Manders coefficient); assay type: cell-based; parameters: key to Emax: Manders coefficient: fraction of mCherry-CAAX co-localizing with GFP-K-Ras; conditions: for Emax: maximal effect, Manders coefficient; for Emax / IC50 / EC50: MDCK cells; for Emax / EC50: 48 h; for IC50: 48 h treatment, read-out: IC50 (μM), KRASG12V mislocalization; for EC50: batch 4 compounds, title calls it IC50, read-out: EC50; for fold potency loss / decreased potency: versus 12f (NY0244)
In short: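 Readout is the Manders coefficient: share of mCherry-CAAX overlapping mGFP-K-RASG12V in confocal images, proportional to K-Ras mislocalization. Stable MDCK co-expressing lines were exposed 48 h to various drug concentrations or 0.1% DMSO vehicle, then paraformaldehyde-fixed.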

| Compound | Emax [2] | Cytotoxic at 30 μM [1] | IC50 [2] [µM] | other results |
| --- | --- | --- | --- | --- |
| COc1ccc([C@@H](C)N(C)CC=C(c2ccccc2)c2ccccc2)cc1 [NY0218, (R)-N-(1-(4-methoxyphenyl)ethyl)-N-methyl-3,3-diphenylprop-2-en-1-amine] | 0.75 ± 0.01 | No | 3.3 | fold loss of potency to mislocalize KRAS ([2]; in comparison with 7): 7 fold |
| C[C@H](c1ccc(F)cc1)N(C/C=C(/c1ccc(F)cc1)c1ccc(C(F)(F)F)cc1)CCN1CCCC1 [PW455, (R,E)-3-(4-fluorophenyl)-N-(1-(4-fluorophenyl)ethyl)-N-(2-(pyrrolidin-1-yl)ethyl)-3-(4-(trifluoromethyl)phenyl)prop-2-en-1-amine] | 0.821 | Yes at 10 uM | 1.86 |  |
| COc1ccc([C@@H](C)N(CC=C(c2ccccc2)c2ccccc2)CCN(C)C)cc1 [NY0435, (R)-N^1-(3,3-diphenylallyl)-N^1-(1-(4-methoxyphenyl)ethyl)-N^2,N^2-dimethylethane-1,2-diamine] | 0.658 | Yes | 11.2 | IC50 ([2]; listed as 12a): 11.2 µM; Emax ([2]; listed as 12a): 0.66 ± 0.01 |
| COc1ccc([C@@H](C)N(CC=C(c2ccccc2)c2ccccc2)CCN2CCC2)cc1 [NY0593, (R)-N-(2-(azetidin-1-yl)ethyl)-N-(1-(4-methoxyphenyl)ethyl)-3,3-diphenylprop-2-en-1-amine] | 0.694 | Yes | 0.5 | EC50 [2]: 0.492 µM; Emax ([2]; listed as 12i): 0.69 ± 0.02; fold potency loss / decreased potency [2]: 5 fold |
| COc1ccc([C@H](C)N(CC=C(c2ccccc2)c2ccccc2)CCN2CCN(C)CC2)cc1 [NY0454, (S)-N-(1-(4-methoxyphenyl)ethyl)-N-(2-(4-methylpiperazin-1-yl)ethyl)-3,3-diphenylprop-2-en-1-amine] | 0.827 | Yes | 1.24 | IC50 ([2]; listed as 15a): 1.2 µM; Emax ([2]; listed as 15a): 0.83 and 0.83 ± 0.02; fold potency loss / decreased potency [2]: 12 fold |

Second part, led by results:

| Emax [2] | Compound | Cytotoxic at 30 μM [1] | IC50 [2] [µM] | other results |
| --- | --- | --- | --- | --- |
| 0.414 | C[C@H](c1ccc(F)cc1)N(CC=C(c1ccccc1)c1ccccc1)CCNc1cc(-c2ccc(F)cc2)n[nH]1 [PW2100, (R)-N^1-(3,3-diphenylallyl)-N^2-(3-(4-fluorophenyl)-1H-pyrazol-5-yl)-N^1-(1-(4-fluorophenyl)ethyl)ethane-1,2-diamine] | No |  |  |
| 0.424 | COC(=O)[C@H](NCC=C(c1ccccc1)c1ccccc1)c1ccccc1 [NY055102, Methyl (R)-2-((3,3-diphenylallyl)amino)-2-phenylacetate] | No |  |  |
| 0.785 | COc1ccc([C@@H](C)N(CC=C(c2ccccc2)c2ccccc2)S(C)(=O)=O)cc1 [NY0223, (R)-N-(3,3-diphenylallyl)-N-(1-(4-methoxyphenyl)ethyl)methanesulfonamide] | No | 8.45 |  |
| 0.825 | COc1ccc([C@@H](C)N(CC=C(c2ccccc2)c2ccccc2)CCN2CCN(C(=O)C(C)F)CC2)cc1 (stereo partly drawn) [NY0591, 1-(4-(2-((3,3-diphenylallyl)((R)-1-(4-methoxyphenyl)ethyl)amino)ethyl)piperazin-1-yl)-2-fluoropropan-1-one] | No |  |  |
| 0.608 | C[C@@H](CNCC=C(c1ccccc1)c1ccccc1)c1ccccc1 [NY022702, (R)-3,3-diphenyl-N-(2-phenylpropyl)prop-2-en-1-amine] | No | 16.9 |  |
| 0.605 | COc1ccc(CCN(CC=C(c2ccccc2)c2ccccc2)CC=C(c2ccccc2)c2ccccc2)cc1 [NY0220, N-(3,3-diphenylallyl)-N-(4-methoxyphenethyl)-3,3-diphenylprop-2-en-1-amine] | No | 3.65 |  |
| 0.697 | C[C@@H](NCC(=O)N1c2ccccc2CCc2ccccc21)c1ccccc1 [NY0584, (R)-1-(10,11-dihydro-5H-dibenzo[b,f]azepin-5-yl)-2-((1-phenylethyl)amino)ethan-1-one] | No |  | EC50 [2]: 6.94 µM |
